Measurements: ChEMBL document CHEMBL1155187, “Amplification of the inhibitory activity of miglitol by monofluorination” (Bioorg Med Chem Lett, 2009)

Target: Oligo-1,6-glucosidase IMA1 (Saccharomyces cerevisiae S288c, UniProt P53051)
Experiment: Inhibition of baker's yeast alpha-glucosidase by 4-nitrophenolate-based assay

Oligo-1,6-glucosidase IMA1, sequence (P53051 whole entry): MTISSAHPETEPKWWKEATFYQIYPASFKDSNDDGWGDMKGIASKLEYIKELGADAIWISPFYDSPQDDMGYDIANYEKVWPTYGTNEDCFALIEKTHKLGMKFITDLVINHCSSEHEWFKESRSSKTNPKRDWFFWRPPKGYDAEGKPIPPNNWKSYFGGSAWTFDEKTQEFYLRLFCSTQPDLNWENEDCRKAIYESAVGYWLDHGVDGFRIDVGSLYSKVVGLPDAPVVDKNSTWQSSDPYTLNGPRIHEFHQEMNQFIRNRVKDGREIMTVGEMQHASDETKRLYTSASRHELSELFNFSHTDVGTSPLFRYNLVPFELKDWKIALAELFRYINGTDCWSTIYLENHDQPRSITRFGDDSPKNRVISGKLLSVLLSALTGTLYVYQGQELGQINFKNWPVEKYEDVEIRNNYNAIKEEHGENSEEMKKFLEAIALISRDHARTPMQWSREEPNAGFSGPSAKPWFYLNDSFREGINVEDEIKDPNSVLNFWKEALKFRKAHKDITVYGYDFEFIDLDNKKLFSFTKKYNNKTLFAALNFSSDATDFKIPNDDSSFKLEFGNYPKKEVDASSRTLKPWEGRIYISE

IC50 [mM]	Structure (SMILES)
2.1	OCCN1C[C@@H](F)[C@@H](O)[C@H](O)[C@H]1CO
9.9	OCCN1C[C@H](O)[C@@H](O)[C@H](O)[C@H]1CO [MIGLITOL]
